From article PMC6007898, “Methyl dihydrojasmonate and lilial are the constituents with an "off-label" insect repellence in perfumes” (PLoS ONE, 2018) come the findings set out here.

The target in this test is T1, CquiOR136/CquiOrco (Culex quinquefasciatus, UniProt A0A0A0QKD4).
T1 construct: odorant receptor co-expressed with its co-receptor Orco in Xenopus oocytes; with Odorant receptor coreceptor
T1 sequence (A0A0A0QKD4 1-436): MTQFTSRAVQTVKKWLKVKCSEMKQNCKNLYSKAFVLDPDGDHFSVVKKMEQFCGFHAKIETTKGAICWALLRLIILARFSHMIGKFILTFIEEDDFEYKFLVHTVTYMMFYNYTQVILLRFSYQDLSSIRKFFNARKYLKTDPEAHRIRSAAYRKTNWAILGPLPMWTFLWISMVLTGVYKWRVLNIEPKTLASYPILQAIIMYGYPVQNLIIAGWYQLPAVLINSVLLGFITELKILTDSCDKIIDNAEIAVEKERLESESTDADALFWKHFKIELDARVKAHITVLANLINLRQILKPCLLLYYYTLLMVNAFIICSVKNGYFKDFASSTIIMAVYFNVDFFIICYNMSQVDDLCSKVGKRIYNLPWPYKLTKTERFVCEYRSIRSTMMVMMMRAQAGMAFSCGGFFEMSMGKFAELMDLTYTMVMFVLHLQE
Description: two-electrode voltage clamp, Xenopus oocytes. The test is classed as cell-based. The conditions noted are these: holding potential -80 mV, CquiOrco co-expressed, agonist. As to the method: All compounds were tested at the same dose
For orientation: In two-electrode clamp one electrode senses voltage and the other passes current.

Consider `CCCCCC1C(=O)CCC1CC(=O)OC` (mixture of isomers) [MDJ, methyl 2-(3-oxo-2-pentylcyclopentyl)acetate], for which the “current at 1 mM” value is “The currents elicited by methyl dihydrojasmonate were significantly higher than those elicited by lilial”.
Consider `CC(C=O)Cc1ccc(C(C)(C)C)cc1` (centres unmarked) [lilial], for which the “current at 1 mM” value is reported as “both compounds were somewhat strong repellents, they activated CquiOR136 differently”.
